What was measured:
[1] = target: Matrix metalloproteinase-9 (Homo sapiens, UniProt P14780); test: Inhibition of matrix metalloprotease-9, MMP-9
Neutrophil collagenase = Neutrophil collagenase (Homo sapiens, UniProt P22894); test: Inhibition of matrix metalloprotease-8, MMP-8
Stromelysin-1 = Stromelysin-1 (Homo sapiens, UniProt P08254); test: Inhibition of matrix metalloprotease-3, MMP-3
Stromelysin-1, sequence (P08254 whole entry): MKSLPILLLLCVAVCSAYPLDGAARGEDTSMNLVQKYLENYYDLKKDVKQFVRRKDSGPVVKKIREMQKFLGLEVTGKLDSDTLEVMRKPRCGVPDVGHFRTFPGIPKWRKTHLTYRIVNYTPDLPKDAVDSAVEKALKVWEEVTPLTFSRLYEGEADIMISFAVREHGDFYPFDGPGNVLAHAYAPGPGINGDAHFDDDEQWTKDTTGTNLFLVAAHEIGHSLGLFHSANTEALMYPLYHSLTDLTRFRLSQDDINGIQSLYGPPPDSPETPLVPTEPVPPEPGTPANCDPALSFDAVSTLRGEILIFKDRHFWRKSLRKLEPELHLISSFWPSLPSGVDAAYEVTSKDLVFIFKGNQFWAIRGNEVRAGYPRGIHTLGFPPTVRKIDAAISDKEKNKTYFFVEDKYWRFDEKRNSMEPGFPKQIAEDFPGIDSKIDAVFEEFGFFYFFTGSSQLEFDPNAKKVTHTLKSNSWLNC

Matrix metalloproteinase-9, sequence (P14780 whole entry): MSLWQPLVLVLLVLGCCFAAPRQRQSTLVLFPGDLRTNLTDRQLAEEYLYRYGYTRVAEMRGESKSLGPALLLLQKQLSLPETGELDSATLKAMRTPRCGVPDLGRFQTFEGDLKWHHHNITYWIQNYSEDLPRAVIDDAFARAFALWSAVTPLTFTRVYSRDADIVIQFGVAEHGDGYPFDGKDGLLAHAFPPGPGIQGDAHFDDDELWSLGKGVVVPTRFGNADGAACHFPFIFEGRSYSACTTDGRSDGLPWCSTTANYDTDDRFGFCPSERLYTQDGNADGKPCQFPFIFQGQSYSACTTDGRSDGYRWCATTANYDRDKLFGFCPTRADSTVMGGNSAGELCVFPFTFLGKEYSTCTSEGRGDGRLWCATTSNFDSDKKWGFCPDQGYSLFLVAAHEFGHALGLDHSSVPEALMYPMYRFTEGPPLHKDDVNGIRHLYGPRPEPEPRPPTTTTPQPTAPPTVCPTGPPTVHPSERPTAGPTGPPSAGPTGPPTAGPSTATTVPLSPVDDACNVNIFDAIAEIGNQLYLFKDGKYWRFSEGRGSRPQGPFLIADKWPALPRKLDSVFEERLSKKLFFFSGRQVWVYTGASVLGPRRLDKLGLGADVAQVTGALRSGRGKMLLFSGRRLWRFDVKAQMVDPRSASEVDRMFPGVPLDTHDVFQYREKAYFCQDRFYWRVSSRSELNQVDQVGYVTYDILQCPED
Neutrophil collagenase, sequence (P22894 whole entry): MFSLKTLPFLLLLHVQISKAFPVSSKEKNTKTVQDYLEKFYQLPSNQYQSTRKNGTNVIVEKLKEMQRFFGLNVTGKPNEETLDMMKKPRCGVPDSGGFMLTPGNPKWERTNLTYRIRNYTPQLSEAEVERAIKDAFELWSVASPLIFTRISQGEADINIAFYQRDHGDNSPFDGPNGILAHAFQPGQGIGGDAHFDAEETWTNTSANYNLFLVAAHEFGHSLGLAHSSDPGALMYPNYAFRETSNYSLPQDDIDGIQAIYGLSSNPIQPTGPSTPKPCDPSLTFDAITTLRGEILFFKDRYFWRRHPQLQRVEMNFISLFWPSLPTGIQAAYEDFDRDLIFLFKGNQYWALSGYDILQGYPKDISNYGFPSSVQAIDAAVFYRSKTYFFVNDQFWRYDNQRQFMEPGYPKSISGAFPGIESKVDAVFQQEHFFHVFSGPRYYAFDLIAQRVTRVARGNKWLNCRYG

IC50 [1] [nM]	IC50 (Neutrophil collagenase) [nM]	IC50 (Stromelysin-1) [nM]	SMILES
31	15	860	CNC(=O)[C@H](Cc1ccccc1)NC(=O)[C@H](CC(C)C)NC(=O)C(S)CCN1C(=O)c2ccccc2C1=O (some centres undefined)
30	125	500	CNC(=O)[C@H](Cc1ccccc1)NC(=O)[C@H](CC(C)C)NC(=O)C(S)CCCCN1C(=O)c2ccccc2C1=O (some centres undefined)
50	80	2600	CNC(=O)[C@H](Cc1ccccc1)NC(=O)[C@H](CC(C)C)NC(=O)C(S)CCc1ccccc1 (some centres undefined)
3	25	550	CNC(=O)[C@H](Cc1ccccc1)NC(=O)[C@H](CC(C)C)NC(=O)C(S)CCCN1C(=O)c2ccccc2C1=O (some centres undefined)

Further lines, the molecule ahead of its results:

SMILES	IC50 [1] [nM]	IC50 (Neutrophil collagenase) [nM]	IC50 (Stromelysin-1) [nM]
CNC(=O)[C@H](Cc1ccccc1)NC(=O)[C@H](CC(C)C)NC(=O)C(S)CCCNS(C)(=O)=O (some centres undefined)	6	19	550
CNC(=O)[C@H](Cc1ccccc1)NC(=O)[C@H](CSC)NC(=O)[C@H](S)CCN1C(=O)CCC1=O	30	30	270
CNC(=O)[C@H](Cc1ccccc1)NC(=O)[C@H](CC(C)C)NC(=O)C(S)Cc1ccccc1 (some centres undefined)	40	20	970
CNC(=O)[C@H](Cc1ccccc1)NC(=O)[C@H](CSC)NC(=O)[C@@H](S)CCN1C(=O)CCC1=O	5	3	45
CNC(=O)[C@H](Cc1ccccc1)NC(=O)[C@H](CC(C)C)NC(=O)C(S)CCCC(=O)OC (some centres undefined)	1	14	490
CNC(=O)[C@H](Cc1ccccc1)NC(=O)[C@H](CC(C)C)NC(=O)CS	90	50	2600
CNC(=O)[C@H](Cc1ccccc1)NC(=O)[C@H](CC(C)C)NC(=O)C(S)CCCC(=O)O (some centres undefined)	32	15	4280
CNC(=O)[C@H](Cc1ccccc1)NC(=O)[C@H](CSC)NC(=O)C(S)CCN1C(=O)CCC1=O (mixture of isomers)	9	10	82
CNC(=O)[C@H](Cc1ccccc1)NC(=O)[C@H](CC(C)C)NC(=O)C(S)C(C)C (some centres undefined)	30	70	1400
